Test results from US20110059982A1, “AZAINDOLE COMPOUNDS FOR TREATMENT OF CENTRAL NERVOUS SYSTEM DISORDERS” (MERCK PATENT GESELLSCHAFT MIT BESCHRANKTER HAFTUNG, priority 2008, published 2011).
pIC50, pKi: −log10 of the molar value.

How the values were obtained:
Dopamine uptake = target: T1, Dopamine uptake (Rattus norvegicus, UniProt P23977); experiment: [3H]Dopamine uptake inhibition in crude synaptosomal preparation; format: biochemical; conditions: rat brain synaptosomal preparation, [3H]DA tracer, GBR12909 as reference; read-out: IC50 (nmol/L), Dopamine
T1 construct: A crude synaptosomal membrane preparation from various regions of rat brain was prepared; from tissue; host or cells: crude synaptosomal preparation from rat brain (Sprague-Dawley)
T1 sequence (P23977 whole entry): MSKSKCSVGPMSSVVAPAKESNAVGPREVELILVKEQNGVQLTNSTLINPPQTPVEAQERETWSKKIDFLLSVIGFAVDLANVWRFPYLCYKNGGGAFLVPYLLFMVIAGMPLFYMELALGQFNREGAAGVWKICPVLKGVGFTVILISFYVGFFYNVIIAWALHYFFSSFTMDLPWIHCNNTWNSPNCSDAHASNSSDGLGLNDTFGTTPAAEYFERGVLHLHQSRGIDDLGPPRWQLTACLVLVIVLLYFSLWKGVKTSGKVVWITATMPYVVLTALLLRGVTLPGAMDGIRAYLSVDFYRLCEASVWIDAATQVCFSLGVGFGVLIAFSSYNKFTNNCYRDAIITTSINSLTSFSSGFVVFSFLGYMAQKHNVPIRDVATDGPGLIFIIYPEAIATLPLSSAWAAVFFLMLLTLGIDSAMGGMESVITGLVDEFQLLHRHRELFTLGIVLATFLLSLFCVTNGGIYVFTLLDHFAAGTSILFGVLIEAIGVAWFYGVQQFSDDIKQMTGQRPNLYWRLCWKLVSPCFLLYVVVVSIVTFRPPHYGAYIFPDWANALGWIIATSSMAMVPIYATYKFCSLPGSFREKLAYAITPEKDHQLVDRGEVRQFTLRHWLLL
Experimental: Dopamine uptake inhibition was determined as described by Janowsky et al. (Neurochem. 1986, 46:1272-1276) with [^3H]DA as tracer and GBR12909 as reference.
[^3H]Dopamine uptake inhibition is as provided below:
Tissue preparation—A crude synaptosomal membrane preparation from various regions of rat brain was prepared as described by Berger et al. (Eur. J. Pharmacol. 1985, 107:289-290). Brain tissue from adult male Sprague-Dawley rats (150-200 g) was homogenized in 10 volumes of ice-cold sucrose (0.32 M) using a Teflon glass homogenizer, and centrifuged at 1000 g for 10 min. […] The final protein concentration was 100-200 μg protein/mL, as determined by the method of Lowry et al. (J. Biol. Chem. 1951, 193:265-275).
The uptake of [^3H]dopamine in a crude synaptosomal preparation was measured as described by Harris et al. (Life Sci. 1973, 13:303-312). […] The filters were rinsed three times with 4 mL of ice-cold buffer (Tris-HCl, 50 mM, pH 7.7, containing 120 mM NaCl) and the radioactivity remaining on the filters was measured by conventional liquid scintillation spectrometry. […]
Assay tubes contained 250 μL of the tissue preparation, 50 μL of [^3H]dopamine (40 nM) 200 μL of buffer or various uptake inhibitors, and 1.0 mL of Krebs-Ringer bicarbonate buffer (pH 7.4). […] Radioactivity remaining on the filters was measured by conventional liquid scintillation spectrometry.

5-HT1A receptor = target: T2, 5-HT1A receptor (Homo sapiens, UniProt P08908); experiment: 5-HT1A binding assay, [3H]8-OH-DPAT as ligand; conditions: 8-OH-DPAT as reference; for pIC50: read-out: IC50 (nmol/L), 5-HT1A
T2 sequence (P08908 1-422): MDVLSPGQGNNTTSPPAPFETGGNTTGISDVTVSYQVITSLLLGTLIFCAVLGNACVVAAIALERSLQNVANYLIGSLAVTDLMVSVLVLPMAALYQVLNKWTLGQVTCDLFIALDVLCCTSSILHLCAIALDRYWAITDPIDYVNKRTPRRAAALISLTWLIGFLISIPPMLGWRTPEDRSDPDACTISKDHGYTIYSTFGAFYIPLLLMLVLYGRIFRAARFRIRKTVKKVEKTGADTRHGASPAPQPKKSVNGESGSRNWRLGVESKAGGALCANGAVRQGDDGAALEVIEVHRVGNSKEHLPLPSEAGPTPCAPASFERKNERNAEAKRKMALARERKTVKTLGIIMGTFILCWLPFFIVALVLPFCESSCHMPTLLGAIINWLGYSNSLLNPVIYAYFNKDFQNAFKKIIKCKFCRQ
Experimental: Binding properties at the 5-HT1A receptor were determined by means of the 5-HT1A binding assay as described in the literature by Mulheron et al. (J. Biol. Chem. 1994, 269:12954-12962) with [^3H]8-OH-DPAT as ligand and 8-OH-DPAT as reference.

Norepinephrine uptake = target: T3, Norepinephrine uptake (Rattus norvegicus, UniProt Q63380); experiment: Norepinephrine uptake, [3H]NE as tracer; format: biochemical; conditions: [3H]NE tracer, protriptyline as reference; read-out: IC50 (nmol/L), Norepinephrine
T3 construct: from tissue
T3 sequence (Q63380 1-617): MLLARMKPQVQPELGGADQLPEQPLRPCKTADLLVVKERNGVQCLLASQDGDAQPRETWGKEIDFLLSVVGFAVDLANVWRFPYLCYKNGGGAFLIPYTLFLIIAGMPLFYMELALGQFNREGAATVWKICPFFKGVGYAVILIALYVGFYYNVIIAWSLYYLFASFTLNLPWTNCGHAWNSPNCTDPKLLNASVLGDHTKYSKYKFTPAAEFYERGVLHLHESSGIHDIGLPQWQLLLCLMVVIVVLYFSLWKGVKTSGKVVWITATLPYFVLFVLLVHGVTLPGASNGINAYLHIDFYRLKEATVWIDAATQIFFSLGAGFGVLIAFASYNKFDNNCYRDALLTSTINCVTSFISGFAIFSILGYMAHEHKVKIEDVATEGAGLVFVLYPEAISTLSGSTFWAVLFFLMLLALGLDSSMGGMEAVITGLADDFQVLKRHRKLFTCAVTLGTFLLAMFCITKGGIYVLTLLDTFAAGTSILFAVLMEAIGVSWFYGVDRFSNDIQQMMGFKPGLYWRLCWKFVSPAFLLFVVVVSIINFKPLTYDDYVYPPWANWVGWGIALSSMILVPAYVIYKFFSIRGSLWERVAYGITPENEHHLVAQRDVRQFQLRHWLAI
Experimental: Norepinephrine uptake was determined as described in the Perovic & Muller work with [^3H]NE as tracer and protriptyline as reference.

Serotonin reuptake = target: T4, Serotonin reuptake (Rattus norvegicus, UniProt P31652); experiment: Serotonin re-uptake inhibition, synaptosomal, [3H]5-HT as tracer; format: biochemical; conditions: [3H]5-HT tracer, imipramine as reference, read-out: IC50 (nmol/L), Serotonin reuptake
T4 construct: from tissue
T4 sequence (P31652 whole entry): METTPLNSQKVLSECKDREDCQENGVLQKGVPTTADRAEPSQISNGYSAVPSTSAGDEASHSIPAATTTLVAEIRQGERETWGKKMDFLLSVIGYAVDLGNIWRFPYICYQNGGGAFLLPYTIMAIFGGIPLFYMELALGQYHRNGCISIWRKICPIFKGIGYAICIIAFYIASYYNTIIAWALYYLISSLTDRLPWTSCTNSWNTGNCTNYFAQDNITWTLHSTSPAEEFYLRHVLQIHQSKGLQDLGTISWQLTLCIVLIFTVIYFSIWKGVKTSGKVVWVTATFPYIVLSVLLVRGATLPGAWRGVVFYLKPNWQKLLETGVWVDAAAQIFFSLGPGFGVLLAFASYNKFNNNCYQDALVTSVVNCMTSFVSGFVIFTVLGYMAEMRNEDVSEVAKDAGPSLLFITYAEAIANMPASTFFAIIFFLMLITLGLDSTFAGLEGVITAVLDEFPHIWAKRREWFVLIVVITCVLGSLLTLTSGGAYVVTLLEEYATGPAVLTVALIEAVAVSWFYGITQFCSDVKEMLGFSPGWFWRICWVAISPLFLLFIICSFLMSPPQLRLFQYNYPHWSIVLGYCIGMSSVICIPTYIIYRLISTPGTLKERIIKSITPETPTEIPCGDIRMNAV
Experimental: Serotonin re-uptake inhibition was determined by means of synaptosomal re-uptake inhibition as described by Perovic & Muller et al. (Arzneim-Forsch. Drug. Res. 1995, 45:1145-1148) with [^3H]5-HT as tracer and imipramine as reference.

melting point [°C] | pIC50 (Dopamine uptake) | pKi (5-HT1A receptor) | pIC50 (5-HT1A receptor) | pIC50 (Norepinephrine uptake) | pIC50 (Serotonin reuptake) | SMILES
240 to 242 | – | – | – | – | – | N#Cc1cnc2[nH]cc(CCCCN3CCC(Oc4ccc5c(c4)OCCO5)CC3)c2c1 [Example 3, 3-{4-[4-(2,3-Dihydro-benzo[1,4]dioxin-6-yloxy)-piperidin-1-yl]-butyl}-1H-pyrrolo[2,3-b]pyridine-5-carbonitrile]
– | < 6.70 | 6.82 to 7.00 | 6.70 to 6.82 | 6.82 to 7.00 | 7.00 to 7.29 | N#Cc1cnc2[nH]cc(CCCCN3CCN(c4ccc5oc(C(N)=O)cc5c4)CC3)c2c1 [Example 1, 5-{4-[4-(5-Cyano-1H-pyrrolo[2,3-b]pyridine-3-yl)-butyl]-piperazin-1-yl}-benzofuran-2-carboxylic acid amide]
– | < 6.70 | 7.30 to 9.00 | 7.00 to 7.29 | 6.70 to 6.82 | < 6.70 | N#Cc1ccc2[nH]cc(CCCCN3CCN(c4ccc5oc(C(N)=O)cc5c4)CC3)c2n1 [Example 2, 5-{4-[4-(5-Cyano-1H-pyrrolo[3,2-b]pyridine-3-yl)-butyl]-piperazin-1-yl}-benzofuran-2-carboxylic acid amide]
